Data published in patent US20150105252A1, “SUBSTITUTED PYRAZOLES AS HERBICIDES” (E I DU PONT DE NEMOURS AND COMPANY, priority 2013, published 2015).

Key:
bermudagrass = test: Test E preemergence; assay type: in vivo, Cynodon dactylon; conditions: 21 days, scale 0 to 100
Description: (§1) Seeds of plant species selected from bermudagrass (Cynodon dactylon), Surinam grass (Brachiaria decumbens), crabgrass, large (large crabgrass, Digitaria sanguinalis), crabgrass, naked (naked crabgrass, Digitaria nuda), foxtail, green (green foxtail, Setaria viridis), johnsongrass (Sorghum halepense), kochia (Kochia scoparia), morningglory (pitted morningglory, Ipomoea lacunosa), nutsedge, purple (purple nutsedge, Cyperus rotundus), ragweed (common ragweed, Ambrosia elation), mustard, black (black mustard, Brassica nigra), guineagrass (Panicum maximum), dallisgrass (Paspalum dilatatum), barnyardgrass (Echinochloa crus-galli), sandbur (southern sandbur, Cenchrus echinatus), sowthistle (common sowthistle, Sonchus oleraceous), ryegrass, Italian (Italian ryegrass, Lolium multiflorum), signalgrass (broadleaf signalgrass, Brachiaria platyphylla), dayflower, VA (Virginia (VA) dayflower, Commelina virginica), bluegrass (annual bluegrass, Poa annua), quackgrass (Elytrigia repens), mallow (common mallow, Malva sylvestris), buckwheat, wild (wild buckwheat, Polygonum convolvulus), leafy spurge (Euphorbia esula), common chickweed (Stellaria media), wild poinsettia (Euphorbia heterophylla), pigweed, palmer (palmer pigweed, Amaranthus palmeri), and pigweed (redroot pigweed, Amaranthus retroflexus) were planted into a blend of loam soil and sand and treated preemergence with test chemicals formulated in a non-phytotoxic solvent mixture which included a surfactant.
(§2) Treated plants and controls were maintained in a greenhouse for 21 days, after which time all species were compared to controls and visually evaluated. Plant response ratings, summarized in Table E, are based on a scale of 0 to 100 where 0 is no effect and 100 is complete control. A dash (-) response means no test result.

Surinam grass = test: Test E preemergence; assay type: in vivo, Brachiaria decumbens; conditions: 21 days, scale 0 to 100
Description: as §1, §2

crabgrass, large = test: Test E preemergence; assay type: in vivo, Digitaria sanguinalis; conditions: 21 days, scale 0 to 100
Description: as §1, §2

morningglory = test: Test E preemergence; assay type: in vivo, Ipomoea lacunosa; conditions: 21 days, scale 0 to 100
Description: as §1, §2

common ragweed = test: Test A preemergence; assay type: in vivo, Ambrosia elation
Summary of the method: (§3)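 Pre- and postemergence greenhouse test; loam+sand; cpd in non-phytotox. solvent/surfactant; post at 1–2 leaf, 2–10 cm; visual score ~10 d, 0 = none, 100 = complete control.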

blackgrass = test: Test A postemergence; assay type: in vivo, Alopecurus myosuroides
Summary of the method: as §3

ducksalad = test: Test C flooded paddy test; assay type: in vivo, Heteranthera limosa; conditions: Flood
Summary of the method: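 Greenhouse pots flooded to 3 cm above soil at time of treatment received compound via the water, which stayed at that level.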

[1] = 125 g ai/ha, visual injury, 0 to 100 scale, approx. 10 days
[2] = 500 g ai/ha, visual injury after approx. 10 days, 0 to 100 scale (0 no effect, 100 complete control)
[3] = Postemergence, 500 g ai/ha, 0 to 100 scale (0 no effect, 100 complete control)
[4] = postemergence, 125 g ai/ha, about 10 days, visual rating on 0 to 100 scale (0 no effect, 100 complete control)
[5] = 31 g ai/ha, scale 0 to 100 (0 no effect, 100 complete control)
[6] = 62 g ai/ha, scale 0 to 100 (0 no effect, 100 complete control)
[7] = 125 g ai/ha, scale 0 to 100 (0 no effect, 100 complete control)

## CCc1cc(C(=O)NCC(F)(F)F)nn1Cc1ccnc(C(F)(F)F)c1 [Compound 78, 5-ethyl-N-(2,2,2-trifluoroethyl)-1-[[(2-trifluoromethyl)-4-pyridinyl]methyl]-1H-pyrazole-3-carboxamide]
bermudagrass; 16 g ai/ha
  Plant response rating, Bermudagrass: 70
bermudagrass; 31 g ai/ha
  Plant response rating, Bermudagrass: 85
bermudagrass; 62 g ai/ha
  Plant response rating, Bermudagrass: 100
bermudagrass; 125 g ai/ha
  Plant response rating, Bermudagrass: 100
bermudagrass; 250 g ai/ha
  Plant response rating, Bermudagrass: 100
Surinam grass; 16 g ai/ha
  Plant response rating, Surinam Grass: 20
Surinam grass; 31 g ai/ha
  Plant response rating, Surinam Grass: 80
Surinam grass; 62 g ai/ha
  Plant response rating, Surinam Grass: 90
Surinam grass; 125 g ai/ha
  Plant response rating, Surinam Grass: 90
Surinam grass; 250 g ai/ha
  Plant response rating, Surinam Grass: 100
crabgrass, large; 16 g ai/ha
  Plant response rating, Crabgrass, Large: 90
crabgrass, large; 31 g ai/ha
  Plant response rating, Crabgrass, Large: 100
crabgrass, large; 62 g ai/ha
  Plant response rating, Crabgrass, Large: 100
crabgrass, large; 125 g ai/ha
  Plant response rating, Crabgrass, Large: 100
crabgrass, large; 250 g ai/ha
  Plant response rating, Crabgrass, Large: 100
morningglory; 16 g ai/ha
  Plant response rating, Morningglory: 50
morningglory; 31 g ai/ha
  Plant response rating, Morningglory: 70
morningglory; 62 g ai/ha
  Plant response rating, Morningglory: 90
morningglory; 125 g ai/ha
  Plant response rating, Morningglory: 100
morningglory; 250 g ai/ha
  Plant response rating, Morningglory: 100

## CCONC(=O)c1cc(CC)n(Cc2cc(C(F)(F)F)no2)n1 [Compound 125]
Common ragweed; [1]
  Common Ragweed plant response rating: 50
Common ragweed; [2]
  Common Ragweed plant response rating: 90
blackgrass; [3]
  Blackgrass plant response rating: 90
blackgrass; [4]
  Blackgrass plant response rating: 30

## CCOc1cc(C(=O)NC2CC2)nn1Cc1ccnc(OC(F)F)c1 [Compound 133]
Common ragweed; [1]
  Common Ragweed plant response rating: 80
Common ragweed; [2]
  Common Ragweed plant response rating: 90
blackgrass; [3]
  Blackgrass plant response rating: 100
blackgrass; [4]
  Blackgrass plant response rating: 90

## CCCNC(=O)c1cc(CCCl)n(Cc2ccnc(C(F)(F)F)c2)n1 [Compound 145]
ducksalad; [5]
  Plant response rating, Ducksalad: 100
ducksalad; [6]
  Plant response rating, Ducksalad: 100
ducksalad; 125 g ai/ha, scale 0 to 100
  Plant response rating, Ducksalad: 100
ducksalad; 250 g ai/ha, scale 0 to 100
  Plant response rating, Ducksalad: 100

## CCONC(=O)c1cc(OCC)n(Cc2ccnc(C(F)(F)F)c2)n1 [Compound 195]
ducksalad; [5]
  Plant response rating, Ducksalad: 0
ducksalad; [6]
  Plant response rating, Ducksalad: 20
ducksalad; [7]
  Plant response rating, Ducksalad: 85
ducksalad; 250 g ai/ha, scale 0 to 100
  Plant response rating, Ducksalad: 85

## CCc1cc(C(=O)NC2CC2)nn1Cc1ccnc(OCC(F)(F)F)c1 [Compound 200]
ducksalad; [5]
  Plant response rating, Ducksalad: 30
ducksalad; [6]
  Plant response rating, Ducksalad: 30
ducksalad; [7]
  Plant response rating, Ducksalad: 100
ducksalad; 250 g ai/ha, scale 0 to 100
  Plant response rating, Ducksalad: 100

## CCc1cc(C(=O)NCC(F)(F)F)nn1Cc1cc(OC(F)F)nn1C [Compound 206]
Common ragweed; 125 g ai/ha, visual injury approx. 10 days after treatment
  Common Ragweed plant response rating (0 to 100 scale): 0
Common ragweed; [2]
  Common Ragweed plant response rating: 40
blackgrass; [3]
  Blackgrass plant response rating: 50
blackgrass; [4]
  Blackgrass plant response rating: 0

## CCc1cc(C(=O)NC2CC2)nn1Cc1cc(C(F)(F)C(F)(F)F)nn1C [Compound 226]
ducksalad; [5]
  Plant response rating, Ducksalad: 30
ducksalad; [6]
  Plant response rating, Ducksalad: 60
ducksalad; [7]
  Plant response rating, Ducksalad: 75
